The values below come from patent US7037644B1, “Means and methods for monitoring non-nucleoside reverse transcriptase inhibitor antiretroviral therapy and guiding therapeutic decisions in the treatment of HIV/AIDS” (ViroLogic, Inc., priority 1998, dated 2006).

Experiment [1] relates to RTV-209, patient 97-209 (RT E138A, Y188L). Nature of the experiment: Phenotypic susceptibility assay (patient RTV). Format: cell-based, HIV-1. Conditions: patient RTV pool. As to the method:
The resistance test vectors containing a functional luciferase gene cassette were constructed and host cells were transfected with the resistance test vector DNA. The resistant test vectors contained patient-derived reverse transcriptase and protease sequences that were either susceptible or resistant to the antiretroviral agents, such as nucleoside reverse transcriptase inhibitors, non-nucleoside reverse transcriptase inhibitors and protease inhibitors. […] The IC50 values were determined by plotting percent drug inhibition vs. log10 drug concentration.
Host cells were seeded in 10-cm-diameter dishes and were transfected several days after plating with resistance test vector plasmid DNA and the envelope expression vector. […] HIV capsid protein (p24) levels in the harvested cell culture media were determined by an EIA method as described by the manufacturer (SIAC; Frederick, Md.). […] The inhibitory effect of the drug was determined using the following equation: % luciferase inhibition=1−(RLUluc [drug]÷RLUluc)×100 where RLUluc [drug] is the relative light unit of luciferase activity in infected cells in the presence of drug and RLUluc is the Relative Light Unit of luciferase activity in infected cells in the absence of drug. […]

The test system of experiment [2] is HIV reverse transcriptase with mutations at codon 230 (leucine) and 181 (cysteine). The experiment in a line: Phenotypic susceptibility assay. Conditions: mutations at codons 230 and 181. Format: cell-based. The text has this:
In another specific embodiment, the invention provides for a method of evaluating the effectiveness of NNRTI antiretroviral therapy of a patient comprising (i) collecting a biological sample from an HIV-infected patient; and (ii) determining whether the biological sample comprises nucleic acid encoding HIV RT having a mutation at codon(s) 230 and/or 181. […] In another specific embodiment, the invention provides for a method of evaluating the effectiveness of NNRTI antiretroviral therapy of a patient comprising (i) collecting a biological sample from an HIV-infected patient; and (ii) determining whether the biological sample comprises nucleic acid encoding HIV RT having a mutation at codon 181. […] In another specific embodiment, the invention provides for a method of evaluating the effectiveness of NNRTI antiretroviral therapy of a patient comprising (i) collecting a biological sample from an HIV-infected patient; and (ii) determining whether the biological sample comprises nucleic acid encoding HIV RT having a mutation at codon 188. […]

In the case of `CC(C)Nc1cccnc1N1CCN(C(=O)c2cc3cc(NS(C)(=O)=O)ccc3[nH]2)CC1` [delavirdine], the “decrease in susceptibility (fold, IC50)” value in experiment [1] is on record as 75 fold. In experiment [2], the “change in susceptibility” value is “significant decrease”.
The matching figures for `Cc1ccnc2c1NC(=O)c1cccnc1N2C1CC1` [nevirapine]: “greater than 800 fold” and “significant decrease”.
